# Data from patent US6140311A, “Therapy by intrathecal administration of antitumor agent FUDR” (priority 1997, dated 2000).
# Assays:
# 203 glioma cells = test: In vivo antitumor effect of intrathecal FUDR in mouse meningeal carcinomatosis model; parameters: species or system C57/BL6 mice; details: daily for 5 consecutive days, control group all dead
# Method: Six-week-old C57/BL6 mice divided into groups of 22 or 23 were used to prepare models of meningeal carcinomatosis by directly puncturing the cisterna magna with a 26-gauge needle under anesthesia with ethyl ether and injecting transplantable 203 glioma cells (5×10^5 cells/0.05 ml). The mice were given a specified dose of FUDR by intrathecal injection (0, 25, 50, 100 or 250 μg/0.05 ml/head) daily for 5 consecutive days following the day of transplant.
# [1] = Toxicity of intrathecal FUDR in normal mice (body weight, symptoms, brain histology); assay type: in vivo, C57/BL6 mice; details: for body weight variation: days 0, 2, 4, 6
# Method: Normal C57/BL6 mice divided into groups of 20 were given FUDR by intrathecal injection at a specified dose (0, 10, 25, 50 or 100 μg/0.05ml/head) on the day of start of the experiment, 2 days, 4 days and 6 days after the start. Two months after the completion of administration of the drug, the mice were all sacrificed, and brain tissues were collected, followed by hematoxylin & eosin staining and Kluver Barrera staining for histological investigation.
# [2] = system: meningeal dissemination of malignant tumours; test: Clinical results of intrathecal chemotherapy with FUDR via Ommaya reservoir;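 further: 13 patients with meningeal spread from various primary tumours, treatment length adjusted to disease symptoms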
# Method: The drug was given at a dose of 1 to 10 μg/body a day, three times a week. The period of administration was varied from 3 to 8 weeks in accordance with the symptoms of the disease.
# meningeal carcinomatosis = details: intrathecal MTX; cited from earlier work
# [3] = high-dose group 100 μg/0.05 ml intrathecal
# [4] = 1 to 10 μg/body a day intrathecal, three times a week, 3 to 8 weeks
# [5] = per patient, before→after, CSF obtained by anterial horn of lateral ventricle
# [6] = per patient, 1 to 10 μg/body a day intrathecal, three times a week, 3 to 8 weeks
Compound,survivors on day 14 postimplantation (203 glioma cells; 100 μg/0.05 ml/head intrathecal),survivors on day 14 postimplantation (203 glioma cells; 250 μg/0.05 ml/head intrathecal),neurotic manifestation during and after administration ([1]; all dose groups 10-100 μg/0.05 ml intrathecal),"histological changes in cranial nerve tissues (hematoxylin & eosin, Kluver Barrera staining) ([1]; high-dose (100 μg/0.05 ml) group, two months after completion of administration)","side effects such as diarrhea [1, 3]","body weight variation [1, 3]",body weight variation ([1]; medium-dose group 50 μg/0.05 ml intrathecal),body weight variation ([1]; small-dose group 10 μg/0.05 ml intrathecal),body weight variation ([1]; small-dose group 25 μg/0.05 ml intrathecal),"efficacy, summary of 13 patients [2, 4]","side effects, summary of 13 patients [2, 4]","Cell numbers Ventricular CSF [2, 5]","Protein Ventricular CSF [2, 5]","Cell numbers Spinal CSF ([2]; per patient, before→after, CSF obtained by lumbar puncture)","Response on CSF findings [2, 6]","Side effects [2, 6]",side effects limiting the dose (meningeal carcinomatosis)
"O=c1[nH]c(=O)n([C@H]2C[C@H](O)[C@@H](CO)O2)cc1F [FUDR, 5-fluoro-deoxyuridine]",21 survivors among 22 animals,21 survivors among 22 animals,none of the mice developed neurotic manifestation,none of the mice exhibited abnormalities in the cranial nerve tissues,free of side effects such as frequent diarrhea,transient weight decrease,no weight decrease whatever,no weight decrease whatever,no weight decrease whatever,"diminutions of tumor marker, CSF cells and protein in CSF","none of side effects such as toxicity to the digestive tracts, neurotoxicity, myelosuppression, and dysfunction of the liver and kidney",50.fwdarw,147.fwdar,144.fwdar,No and Response and No Response,None,
"CN(Cc1cnc2nc(N)nc(N)c2n1)c1ccc(C(=O)N[C@@H](CCC(=O)O)C(=O)O)cc1 [MTX, methotrexate]",,,,,,,,,,,,,,,,,Acute neurotoxicity and retarded necrotizing encephalopathy
